{"source": "paper PMC4039632", "about": "(Journal of molecular biology, 2013)", "target": "T1, EngD (Endoglucanase D) (Clostridium cellulovorans, UniProt P28623)", "T1 sequence (P28623 32-515)": "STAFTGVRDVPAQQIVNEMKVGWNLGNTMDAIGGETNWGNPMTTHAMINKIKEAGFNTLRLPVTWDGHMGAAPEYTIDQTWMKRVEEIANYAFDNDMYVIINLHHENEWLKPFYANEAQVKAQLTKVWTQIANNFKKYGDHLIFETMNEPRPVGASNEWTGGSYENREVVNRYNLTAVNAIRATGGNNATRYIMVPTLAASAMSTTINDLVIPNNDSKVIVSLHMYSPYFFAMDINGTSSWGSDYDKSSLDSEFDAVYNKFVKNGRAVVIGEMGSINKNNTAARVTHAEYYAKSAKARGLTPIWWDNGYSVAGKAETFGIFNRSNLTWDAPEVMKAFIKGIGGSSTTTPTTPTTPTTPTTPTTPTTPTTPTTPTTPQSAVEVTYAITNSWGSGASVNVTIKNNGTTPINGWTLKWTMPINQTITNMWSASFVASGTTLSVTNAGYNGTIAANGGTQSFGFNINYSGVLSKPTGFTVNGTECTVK", "experiment": "HPLC of hydrolysis products", "type": "biochemical", "settings": "2 mM substrate, 100 mM sodium citrate pH 5.0, 37 °C, 30 min", "data": [{"smiles": "OC[C@H]1O[C@@H](O[C@H]2[C@H](O)[C@@H](O)[C@H](O[C@H]3[C@H](O)[C@@H](O)[C@H](O[C@H]4[C@H](O)[C@@H](O)[C@H](O[C@H]5[C@H](O)[C@@H](O)[C@H](O[C@H]6[C@H](O)[C@@H](O)C(O)O[C@@H]6CO)O[C@@H]5CO)O[C@@H]4CO)O[C@@H]3CO)O[C@@H]2CO)[C@H](O)[C@@H](O)[C@@H]1O", "note": "(stereo partly shown) [G6, cellohexaose]", "values": [{"measurement": "HPLC of hydrolysis products", "value": "Wild type EngD produced an equal amount cellotriose and cellobiose in the degradation of cellohexaose"}]}]}
